Test results reported in ChEMBL document CHEMBL3880402, “Inhibitors of E1 activating enzymes” (2006).

molecular target: T1, NEDD8-activating enzyme E1 catalytic subunit (Homo sapiens, UniProt Q8TBC4); test: Inhibition of recombinant human untagged NAEalpha/N-terminal His-tagged NAEbeta expressed in Bac-to-Bac expression system using FLAG-tagged NEDD8 as substrate after 90 mins in presence of GST-tagged Ubc12 by HTRF assay
T1 sequence (Q8TBC4 whole entry): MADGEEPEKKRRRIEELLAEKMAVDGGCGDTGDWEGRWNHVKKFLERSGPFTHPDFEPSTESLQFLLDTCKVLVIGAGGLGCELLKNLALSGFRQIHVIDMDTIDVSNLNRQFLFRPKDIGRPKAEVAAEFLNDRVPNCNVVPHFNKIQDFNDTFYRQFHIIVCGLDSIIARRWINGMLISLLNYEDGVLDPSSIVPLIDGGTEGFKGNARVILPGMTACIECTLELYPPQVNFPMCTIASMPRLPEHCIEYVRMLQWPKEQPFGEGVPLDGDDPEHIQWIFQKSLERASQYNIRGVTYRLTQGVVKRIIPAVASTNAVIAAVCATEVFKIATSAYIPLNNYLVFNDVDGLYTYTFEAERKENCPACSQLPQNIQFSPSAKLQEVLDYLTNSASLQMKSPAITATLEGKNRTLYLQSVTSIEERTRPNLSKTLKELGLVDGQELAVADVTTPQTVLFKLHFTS

SMILES	IC50 [nM]
NS(=O)(=O)OC[C@H]1O[C@@H](n2cnc3c(-c4cccc(-n5cccn5)c4)ncnc32)[C@H](O)[C@@H]1O	100 to 1000
NS(=O)(=O)OC[C@H]1O[C@@H](n2cnc3c(C#Cc4ccccc4C(F)(F)F)ncnc32)[C@H](O)[C@@H]1O	100 to 1000
NS(=O)(=O)OC[C@H]1O[C@@H](n2cnc3c(N[C@H]4CCc5ccccc54)nncc32)[C@H](O)[C@@H]1O	100 to 1000
NS(=O)(=O)OC[C@H]1O[C@@H](n2cnc3c(-c4cccc(C(F)(F)F)c4)ncnc32)[C@H](O)[C@@H]1O	100 to 1000
NS(=O)(=O)OC[C@H]1O[C@@H](n2cnc3c(C4CC4)ncnc32)[C@H](O)[C@@H]1O	100 to 1000
NS(=O)(=O)OC[C@H]1O[C@@H](n2cnc3c(CNC(=O)c4cc(F)cc(F)c4)ncnc32)[C@H](O)[C@@H]1O	100 to 1000
CC(=O)NCc1ccccc1CNc1ncnc2c1ncn2[C@@H]1O[C@H](COS(N)(=O)=O)[C@@H](O)[C@H]1O	100 to 1000
CCc1cn([C@H]2C[C@H](O)[C@@H](COS(N)(=O)=O)O2)c2ncnc(CCc3ccccc3)c12	≤ 1000
NS(=O)(=O)OC[C@H]1O[C@@H](n2cnc3c(C#Cc4cccc(Cl)c4)ncnc32)[C@H](O)[C@@H]1O	100 to 1000
Cc1ncnc2c1ncn2[C@@H]1O[C@H](COS(N)(=O)=O)[C@@H](O)[C@H]1O	100 to 1000
NS(=O)(=O)OC[C@H]1O[C@@H](n2ccc3cncnc32)C[C@@H]1O	100 to 1000
NS(=O)(=O)OC[C@H]1O[C@@H](n2cnc3c(NCc4ccc(F)cc4)ncnc32)[C@H](O)[C@@H]1O	100 to 1000
NS(=O)(=O)OC[C@H]1O[C@@H](n2cnc3c(NC(=O)c4ccc(Cl)cc4)ncnc32)[C@H](O)[C@@H]1O	100 to 1000
NS(=O)(=O)OC[C@H]1O[C@@H](n2cnc3c(C#Cc4ccc(F)cc4F)ncnc32)[C@H](O)[C@@H]1O	100 to 1000
NS(=O)(=O)OC[C@H]1C[C@@H](n2cnc3c(C#Cc4ccccc4)ncnc32)C[C@@H]1O	100 to 1000
NS(=O)(=O)OC[C@H]1O[C@@H](n2cnc3c(CCc4ccccc4)ncnc32)[C@H](O)[C@@H]1O	100 to 1000
NS(=O)(=O)OC[C@H]1O[C@@H](n2cnc3c(NCCN4CCCC4)ncnc32)[C@H](O)[C@@H]1O	100 to 1000
CC(C)Cc1ncnc2c1ncn2[C@@H]1C[C@H](COS(N)(=O)=O)[C@@H](O)[C@H]1O	≤ 1000
NS(=O)(=O)OC[C@H]1O[C@@H](n2cnc3c(CNC(=O)c4cccnc4)ncnc32)[C@H](O)[C@@H]1O	100 to 1000
NS(=O)(=O)NC[C@H]1O[C@@H](n2cnc3c(C#Cc4ccccc4)ncnc32)[C@H](O)[C@@H]1O	100 to 1000
CC(C)Cc1ncnc2c1ncn2[C@@H]1O[C@H](COS(N)(=O)=O)[C@@H](O)[C@H]1O	≤ 1000
NS(=O)(=O)NC[C@H]1C[C@@H](n2cnc3c(N[C@H]4CCc5ccccc54)ncnc32)[C@H](O)[C@@H]1O	100 to 1000

SMILES	IC50 [nM]
NS(=O)(=O)OC[C@H]1O[C@@H](n2cnc3c(C#Cc4ccccc4Br)ncnc32)[C@H](O)[C@@H]1O	100 to 1000
NS(=O)(=O)OC[C@H]1O[C@@H](n2cnc3c(NC(=O)c4ccc(Br)cc4)ncnc32)[C@H](O)[C@@H]1O	100 to 1000
NS(=O)(=O)OC[C@H]1O[C@@H](n2cnc3c(/C=C/c4ccccc4)ncnc32)[C@H](O)[C@@H]1O	100 to 1000
COc1ccccc1C(=O)Nc1ncnc2c1ncn2[C@@H]1O[C@H](COS(N)(=O)=O)[C@@H](O)[C@H]1O	100 to 1000
NS(=O)(=O)OC[C@H]1O[C@@H](n2cnc3c(CC4Cc5ccccc5C4)ncnc32)[C@H](O)[C@@H]1O	100 to 1000
NS(=O)(=O)NC[C@H]1O[C@@H](n2cnc3c(NC[C@H](O)c4cccc(O)c4)ncnc32)[C@H](O)[C@@H]1O	100 to 1000
NS(=O)(=O)OC[C@H]1O[C@@H](n2cnc3c(N[C@H]4CCc5ccccc54)nccc32)[C@H](O)[C@@H]1O	100 to 1000
NS(=O)(=O)OC[C@H]1C[C@@H](n2cnc3c(N[C@H]4CCc5ccccc54)ncnc32)C[C@@H]1O	100 to 1000
NS(=O)(=O)OC[C@H]1O[C@@H](n2cnc3c(-c4ccco4)ncnc32)[C@H](O)[C@@H]1O	100 to 1000
COc1ncnc2c1ccn2[C@H]1C[C@H](O)[C@@H](COS(N)(=O)=O)O1	≤ 1000
NS(=O)(=O)OC[C@H]1O[C@@H](n2cnc3c(-c4ccccc4)ncnc32)[C@H](O)[C@@H]1O	100 to 1000
NS(=O)(=O)OC[C@H]1O[C@@H](n2cnc3c(CN4C(=O)c5ccccc5C4=O)ncnc32)[C@H](O)[C@@H]1O	100 to 1000
NS(=O)(=O)OC[C@H]1O[C@@H](n2cnc3c(NCc4ccc5c(c4)OCO5)ncnc32)[C@H](O)[C@@H]1O	100 to 1000
NS(=O)(=O)OC[C@H]1O[C@@H](n2cnc3c(C#Cc4cccc(F)c4)ncnc32)[C@H](O)[C@@H]1O	100 to 1000
NS(=O)(=O)OC[C@H]1O[C@@H](n2cnc3c(CN4Cc5ccccc5C4)ncnc32)[C@H](O)[C@@H]1O	100 to 1000
CCc1ncnc2c1ncn2[C@@H]1O[C@H](COS(N)(=O)=O)[C@@H](O)[C@H]1O	100 to 1000
CC1(C)CC(Nc2ncnc3c2ncn3[C@@H]2O[C@H](CCS(N)(=O)=O)[C@@H](O)[C@H]2O)c2ccccc21 (stereo partly specified)	100 to 1000
NS(=O)(=O)OC[C@H]1O[C@@H](n2cnc3c(NC(=O)Nc4ccccc4)ncnc32)[C@H](O)[C@@H]1O	100 to 1000
NS(=O)(=O)OC[C@H]1O[C@@H](n2cnc3c(N[C@H]4CCc5ccccc54)ncnc32)[C@@H](O)[C@@H]1O	100 to 1000
COc1ccccc1C(=O)NCc1ncnc2c1ncn2[C@@H]1O[C@H](COS(N)(=O)=O)[C@@H](O)[C@H]1O	100 to 1000
NS(=O)(=O)OC[C@H]1O[C@@H](n2cnc3c(C#Cc4ccc(F)cc4)ncnc32)[C@H](O)[C@@H]1O	100 to 1000
NS(=O)(=O)OC[C@H]1O[C@@H](n2cnc3c(C#Cc4cccc(C(F)(F)F)c4)ncnc32)[C@H](O)[C@@H]1O	100 to 1000

SMILES	IC50 [nM]
NS(=O)(=O)OC[C@H]1O[C@@H](n2cnc3c(C#Cc4ccccc4)ncnc32)C[C@@H]1O	100 to 1000
NS(=O)(=O)OC[C@H]1O[C@@H](n2cnc3c(C#Cc4cc(F)cc(F)c4)ncnc32)[C@H](O)[C@@H]1O	100 to 1000
NS(=O)(=O)OC[C@H]1O[C@@H](n2cnc3c(C#Cc4ccc(Br)cc4)ncnc32)[C@H](O)[C@@H]1O	100 to 1000
COc1ccc(C#Cc2ncnc3c2ncn3[C@@H]2O[C@H](COS(N)(=O)=O)[C@@H](O)[C@H]2O)cc1	100 to 1000
CN(c1ncnc2c1ncn2[C@@H]1O[C@H](COS(N)(=O)=O)[C@@H](O)[C@H]1O)[C@H]1CCc2ccccc21	100 to 1000
NS(=O)(=O)OC[C@H]1O[C@@H](n2cnc3c(CNC(=O)c4ccccc4)ncnc32)[C@H](O)[C@@H]1O	100 to 1000
Cc1noc(C)c1-c1ncnc2c1ncn2[C@@H]1O[C@H](COS(N)(=O)=O)[C@@H](O)[C@H]1O	100 to 1000
NS(=O)(=O)OC[C@H]1O[C@@H](n2cnc3c(C#Cc4cccc(Br)c4)ncnc32)[C@H](O)[C@@H]1O	100 to 1000
NS(=O)(=O)OC[C@H]1O[C@@H](n2cnc3c(N[C@H]4CCc5ccccc54)ncnc32)[C@@H](F)[C@@H]1O	100 to 1000
NS(=O)(=O)OC[C@H]1O[C@@H](n2cnc3c(C#Cc4ccc(Cl)cc4)ncnc32)[C@H](O)[C@@H]1O	100 to 1000
NS(=O)(=O)OC[C@H]1O[C@@H](n2cnc3c(NCc4ccccc4)ncnc32)C[C@@H]1O	100 to 1000
NS(=O)(=O)OC[C@H]1C[C@@H](n2cnc3c(CCc4ccccc4)ncnc32)[C@H](O)[C@@H]1O	100 to 1000
NS(=O)(=O)OC[C@H]1O[C@@H](n2ccc3c(N[C@H]4CCc5ccccc54)ncnc32)C[C@@H]1O	100 to 1000
NS(=O)(=O)OC[C@H]1C[C@@H](n2cnc3c(C#Cc4ccccc4)ncnc32)[C@H](O)[C@@H]1O	100 to 1000
NS(=O)(=O)OC[C@H]1O[C@@H](n2ccc3c(NCc4ccccc4)nccc32)C[C@@H]1O	≤ 1000
CO[C@H]1[C@H](O)[C@@H](COS(N)(=O)=O)O[C@H]1n1cnc2c(N[C@H]3CCc4ccccc43)ncnc21	100 to 1000
NS(=O)(=O)OC[C@H]1O[C@@H](n2cnc3c(C#CC4CC4)ncnc32)[C@H](O)[C@@H]1O	100 to 1000
CCCc1ncnc2c1ncn2[C@@H]1C[C@H](COS(N)(=O)=O)[C@@H](O)[C@H]1O	100 to 1000
NS(=O)(=O)OC[C@H]1O[C@@H](n2ccc3c(NC(=O)c4ccccc4)ncnc32)C[C@@H]1O	100 to 1000
NS(=O)(=O)OC[C@H]1O[C@@H](n2cnc3c(C#Cc4ccccc4F)ncnc32)[C@H](O)[C@@H]1O	100 to 1000
NS(=O)(=O)OC[C@H]1O[C@@H](n2cnc3c(C#Cc4ccccc4Cl)ncnc32)[C@H](O)[C@@H]1O	100 to 1000
COc1ccccc1C#Cc1ncnc2c1ncn2[C@@H]1O[C@H](COS(N)(=O)=O)[C@@H](O)[C@H]1O	100 to 1000
